In general, inhibition refers to the change of the read-out against control, counted positive when it falls. A high value points to a strong effect.

One compound from patent EP1147102B1, “HETEROARYL ACETYLENIC SULFONAMIDE AND PHOSPHINIC ACID AMIDE HYDROXAMIC ACID TACE INHIBITORS” (Wyeth Holdings Corporation, priority 1999, dated 2000) can be followed below.

This assay deals with THP-1 cells. Put plainly: Human monocytic THP-1 cell differentiation assay for soluble proteins (THP soluble protein assay). Type of assay: cell-based. The following applies: LPS-stimulated THP-1 cells. The source says:
Mitogenic stimulation of THP-1 cells cause differentiation into macrophage like cells with concomitant secretion of tumor necrosis factor (TNF-α) and TNF receptor (TNF-R p75/80 and TNF-R p55/60) and Interleukin-8 (IL-8), among other proteins. In addition, non-stimulated THP-1 cells shed both the p75/80 and the p55/60 receptors over time. The release of membrane bound TNF-α and possibly TNF-R p75/80 and TNF-R p55/60, but not IL-8, is mediated by an enzyme called TNF-α converting enzyme or TACE.
THP-1 cells (from ATCC) are a human monocytic cell line which were obtained from the peripheral blood of a person with acute monocytic leukemia. […]
To perform an assay, the THP-1 cells are co-incubated in a 24 well plate with […] of a 24 mg/ml stock of Lipopolysacharide (LPS) (Calbiochem Lot# B13189) at 37°C in 5% CO2 at a concentration of 1.091 x 10^6 cells/ml (1.1 ml/well) for a total of 24 hours. […] Compounds can be evaluated for their effect on basal (non-stimulated) shedding of the receptors by replacing the LPS with […] of THP-1 media. […]
In addition, at the 24 hours timepoint, and the cells for each treatment group are collected by resuspension in 500 µl/well of THP-1 media and transferred into a FACS tube. […] The samples are run on a Becton Dickinson FaxCaliber FLOW cytometry machine and the amount of dye taken up by each cell is measured in the high red wavelength (FL3). […]

Compound `CC#CCOc1ccc(S(=O)(=O)N(C)c2c(C(=O)NO)cc(OC)nc2OC)cc1` [Example 33, 3-[Methyl-(4-but-2-ynyloxy-benzenesulfonyl)-amino]-N-hydroxy-2,6-dimethoxyisonicotinamide] registered an inhibition at 3 µM of 31%.
